Experimental findings from ChEMBL document CHEMBL5291721, “A preclinical secondary pharmacology resource illuminates target-adverse drug reaction associations of marketed drugs” (Nat Commun, 2023) are described below.

A value given as a limit tells only on which side of the number the result lay.

For assay [1], the target named is T1, Alpha-1A adrenergic receptor (Homo sapiens, UniProt P35348).
T1 sequence (P35348 whole entry): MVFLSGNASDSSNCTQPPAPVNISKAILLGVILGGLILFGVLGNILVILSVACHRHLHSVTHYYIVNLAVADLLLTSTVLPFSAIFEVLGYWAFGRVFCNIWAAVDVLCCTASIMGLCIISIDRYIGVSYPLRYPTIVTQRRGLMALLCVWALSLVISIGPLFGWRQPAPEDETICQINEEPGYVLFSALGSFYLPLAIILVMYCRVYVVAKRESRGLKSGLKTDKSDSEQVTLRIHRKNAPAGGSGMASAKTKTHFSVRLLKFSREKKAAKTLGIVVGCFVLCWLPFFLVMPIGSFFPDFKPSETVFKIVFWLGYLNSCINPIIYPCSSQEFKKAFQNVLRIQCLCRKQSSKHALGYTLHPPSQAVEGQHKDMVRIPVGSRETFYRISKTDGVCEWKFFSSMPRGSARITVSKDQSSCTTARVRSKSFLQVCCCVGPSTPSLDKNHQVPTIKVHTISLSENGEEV
Type of assay: functional, cell-based.

The target in assay [2] is Delta-type opioid receptor (Homo sapiens, UniProt P41143).
Delta-type opioid receptor, sequence (P41143 whole entry): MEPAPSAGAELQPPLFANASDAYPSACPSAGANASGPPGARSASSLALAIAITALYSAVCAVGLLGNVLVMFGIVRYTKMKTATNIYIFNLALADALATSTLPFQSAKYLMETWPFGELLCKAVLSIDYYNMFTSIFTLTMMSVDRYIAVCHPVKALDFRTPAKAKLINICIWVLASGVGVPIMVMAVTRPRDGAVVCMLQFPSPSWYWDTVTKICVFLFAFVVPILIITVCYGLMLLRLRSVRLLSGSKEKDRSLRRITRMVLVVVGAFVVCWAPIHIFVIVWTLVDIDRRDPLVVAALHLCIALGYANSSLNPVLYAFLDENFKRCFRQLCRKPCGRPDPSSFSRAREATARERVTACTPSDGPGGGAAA
The target in assay [3] is Kappa-type opioid receptor (Homo sapiens, UniProt P41145).
Kappa-type opioid receptor, sequence (P41145 whole entry): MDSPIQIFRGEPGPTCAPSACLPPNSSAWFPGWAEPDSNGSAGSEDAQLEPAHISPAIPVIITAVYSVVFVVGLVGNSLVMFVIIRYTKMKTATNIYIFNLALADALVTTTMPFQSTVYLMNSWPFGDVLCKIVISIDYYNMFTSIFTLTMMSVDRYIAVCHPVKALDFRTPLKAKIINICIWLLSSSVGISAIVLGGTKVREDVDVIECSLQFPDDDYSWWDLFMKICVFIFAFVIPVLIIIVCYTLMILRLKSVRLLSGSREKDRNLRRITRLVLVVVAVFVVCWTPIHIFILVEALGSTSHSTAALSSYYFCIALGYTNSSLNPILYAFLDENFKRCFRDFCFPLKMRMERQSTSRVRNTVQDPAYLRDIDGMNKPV
The target of a further assay is Bile salt export pump (Homo sapiens, UniProt O95342). The class given is functional.
Bile salt export pump, sequence (O95342 whole entry): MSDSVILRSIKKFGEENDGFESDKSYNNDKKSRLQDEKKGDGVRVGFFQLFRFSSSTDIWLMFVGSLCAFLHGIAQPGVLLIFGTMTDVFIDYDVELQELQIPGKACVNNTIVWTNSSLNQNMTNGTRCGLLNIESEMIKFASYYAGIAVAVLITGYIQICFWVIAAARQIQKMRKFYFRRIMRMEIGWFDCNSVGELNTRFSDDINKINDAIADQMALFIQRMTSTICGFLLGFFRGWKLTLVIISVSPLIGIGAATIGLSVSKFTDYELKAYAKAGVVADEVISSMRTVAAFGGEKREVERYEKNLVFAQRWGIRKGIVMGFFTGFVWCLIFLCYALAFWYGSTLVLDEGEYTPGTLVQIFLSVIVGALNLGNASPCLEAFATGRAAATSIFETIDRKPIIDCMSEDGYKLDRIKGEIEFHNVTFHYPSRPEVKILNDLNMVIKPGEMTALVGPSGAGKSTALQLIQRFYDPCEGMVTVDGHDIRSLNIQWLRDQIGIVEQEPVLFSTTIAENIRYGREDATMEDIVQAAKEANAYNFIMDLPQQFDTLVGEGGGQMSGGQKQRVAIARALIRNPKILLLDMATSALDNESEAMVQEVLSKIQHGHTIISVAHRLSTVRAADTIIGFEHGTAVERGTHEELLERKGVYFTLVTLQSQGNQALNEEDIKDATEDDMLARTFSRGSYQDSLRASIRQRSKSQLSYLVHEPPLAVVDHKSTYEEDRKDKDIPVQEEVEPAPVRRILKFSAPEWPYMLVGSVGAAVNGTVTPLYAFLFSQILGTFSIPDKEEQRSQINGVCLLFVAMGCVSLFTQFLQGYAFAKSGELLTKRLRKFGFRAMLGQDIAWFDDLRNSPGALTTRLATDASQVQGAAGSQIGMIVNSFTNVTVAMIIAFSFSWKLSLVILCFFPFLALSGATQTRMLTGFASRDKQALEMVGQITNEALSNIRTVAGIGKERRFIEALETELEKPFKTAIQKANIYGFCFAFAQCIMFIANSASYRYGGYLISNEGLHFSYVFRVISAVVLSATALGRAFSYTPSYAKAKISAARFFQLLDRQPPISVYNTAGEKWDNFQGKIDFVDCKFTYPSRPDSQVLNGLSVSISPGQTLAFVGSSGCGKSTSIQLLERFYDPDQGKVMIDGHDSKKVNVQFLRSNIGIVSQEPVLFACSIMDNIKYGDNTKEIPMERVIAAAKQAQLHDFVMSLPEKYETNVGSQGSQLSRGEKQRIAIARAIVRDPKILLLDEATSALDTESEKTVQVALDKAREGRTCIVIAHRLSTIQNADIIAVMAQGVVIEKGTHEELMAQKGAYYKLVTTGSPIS
Assay [4] deals with T2, 5-hydroxytryptamine receptor 1A (Homo sapiens, UniProt P08908).
T2 sequence (P08908 whole entry): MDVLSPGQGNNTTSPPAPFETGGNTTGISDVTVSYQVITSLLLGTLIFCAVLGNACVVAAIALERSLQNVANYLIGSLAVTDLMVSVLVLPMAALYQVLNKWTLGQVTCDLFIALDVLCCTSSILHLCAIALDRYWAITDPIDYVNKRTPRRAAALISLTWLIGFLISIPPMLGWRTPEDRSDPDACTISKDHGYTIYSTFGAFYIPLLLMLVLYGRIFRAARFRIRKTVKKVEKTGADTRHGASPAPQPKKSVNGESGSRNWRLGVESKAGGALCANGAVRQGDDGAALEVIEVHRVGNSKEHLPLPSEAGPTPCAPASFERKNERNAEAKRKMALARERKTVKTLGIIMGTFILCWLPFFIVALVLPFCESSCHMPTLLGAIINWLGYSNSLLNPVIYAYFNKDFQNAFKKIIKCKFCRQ
Type of assay: functional, cell-based.

Assay [5] concerns the target cGMP-inhibited 3',5'-cyclic phosphodiesterase 3A (Homo sapiens, UniProt Q14432). The class given is functional.
Another assay addresses Histamine H3 receptor (Homo sapiens, UniProt Q9Y5N1).
Assay [6] concerns the target T3, Neuropeptide Y receptor type 1 (Homo sapiens, UniProt P25929).
T3 sequence (P25929 whole entry): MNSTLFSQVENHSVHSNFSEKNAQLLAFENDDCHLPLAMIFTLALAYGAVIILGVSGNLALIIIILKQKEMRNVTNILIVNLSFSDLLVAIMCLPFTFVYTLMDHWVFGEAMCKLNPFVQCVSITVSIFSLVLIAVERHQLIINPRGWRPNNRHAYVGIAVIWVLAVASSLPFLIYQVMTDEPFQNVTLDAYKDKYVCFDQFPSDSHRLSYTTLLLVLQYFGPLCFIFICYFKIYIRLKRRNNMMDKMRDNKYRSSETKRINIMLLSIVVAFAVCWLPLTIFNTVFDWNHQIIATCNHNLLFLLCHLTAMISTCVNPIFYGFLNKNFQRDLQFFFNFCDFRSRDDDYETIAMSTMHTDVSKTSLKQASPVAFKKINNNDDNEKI

Assay [7] addresses Sodium-dependent noradrenaline transporter (Homo sapiens, UniProt P23975).
Assay [8] concerns the target Sodium-dependent serotonin transporter (Homo sapiens, UniProt P31645).
The next assay concerns the target T4, Progesterone receptor (Homo sapiens, UniProt P06401).
T4 sequence (P06401 whole entry): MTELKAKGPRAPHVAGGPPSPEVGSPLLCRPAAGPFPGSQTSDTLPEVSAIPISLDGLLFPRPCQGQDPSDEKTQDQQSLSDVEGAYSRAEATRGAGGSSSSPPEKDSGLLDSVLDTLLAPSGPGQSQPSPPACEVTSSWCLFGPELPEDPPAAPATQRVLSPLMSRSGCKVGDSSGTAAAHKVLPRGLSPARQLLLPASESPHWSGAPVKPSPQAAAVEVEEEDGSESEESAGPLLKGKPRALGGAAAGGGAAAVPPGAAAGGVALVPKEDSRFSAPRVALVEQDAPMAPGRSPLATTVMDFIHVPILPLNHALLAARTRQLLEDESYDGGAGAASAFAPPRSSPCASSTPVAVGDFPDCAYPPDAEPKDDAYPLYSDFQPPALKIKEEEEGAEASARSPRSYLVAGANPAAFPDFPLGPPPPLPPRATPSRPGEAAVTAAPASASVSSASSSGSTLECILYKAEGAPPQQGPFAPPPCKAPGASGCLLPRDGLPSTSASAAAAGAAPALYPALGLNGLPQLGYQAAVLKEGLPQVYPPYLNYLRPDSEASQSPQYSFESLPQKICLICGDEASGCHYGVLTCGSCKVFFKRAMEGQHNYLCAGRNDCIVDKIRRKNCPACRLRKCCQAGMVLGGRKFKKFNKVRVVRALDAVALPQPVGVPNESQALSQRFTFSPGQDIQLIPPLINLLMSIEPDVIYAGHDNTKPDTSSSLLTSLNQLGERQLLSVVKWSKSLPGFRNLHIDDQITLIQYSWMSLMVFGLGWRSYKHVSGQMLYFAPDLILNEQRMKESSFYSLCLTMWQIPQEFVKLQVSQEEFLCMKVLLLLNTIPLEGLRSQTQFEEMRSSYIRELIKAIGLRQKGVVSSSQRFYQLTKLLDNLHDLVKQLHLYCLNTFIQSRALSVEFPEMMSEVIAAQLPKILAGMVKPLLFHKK
The class given is functional.
Further: assay procedure not described here.

cGMP-inhibited 3',5'-cyclic phosphodiesterase 3A, sequence (Q14432 whole entry): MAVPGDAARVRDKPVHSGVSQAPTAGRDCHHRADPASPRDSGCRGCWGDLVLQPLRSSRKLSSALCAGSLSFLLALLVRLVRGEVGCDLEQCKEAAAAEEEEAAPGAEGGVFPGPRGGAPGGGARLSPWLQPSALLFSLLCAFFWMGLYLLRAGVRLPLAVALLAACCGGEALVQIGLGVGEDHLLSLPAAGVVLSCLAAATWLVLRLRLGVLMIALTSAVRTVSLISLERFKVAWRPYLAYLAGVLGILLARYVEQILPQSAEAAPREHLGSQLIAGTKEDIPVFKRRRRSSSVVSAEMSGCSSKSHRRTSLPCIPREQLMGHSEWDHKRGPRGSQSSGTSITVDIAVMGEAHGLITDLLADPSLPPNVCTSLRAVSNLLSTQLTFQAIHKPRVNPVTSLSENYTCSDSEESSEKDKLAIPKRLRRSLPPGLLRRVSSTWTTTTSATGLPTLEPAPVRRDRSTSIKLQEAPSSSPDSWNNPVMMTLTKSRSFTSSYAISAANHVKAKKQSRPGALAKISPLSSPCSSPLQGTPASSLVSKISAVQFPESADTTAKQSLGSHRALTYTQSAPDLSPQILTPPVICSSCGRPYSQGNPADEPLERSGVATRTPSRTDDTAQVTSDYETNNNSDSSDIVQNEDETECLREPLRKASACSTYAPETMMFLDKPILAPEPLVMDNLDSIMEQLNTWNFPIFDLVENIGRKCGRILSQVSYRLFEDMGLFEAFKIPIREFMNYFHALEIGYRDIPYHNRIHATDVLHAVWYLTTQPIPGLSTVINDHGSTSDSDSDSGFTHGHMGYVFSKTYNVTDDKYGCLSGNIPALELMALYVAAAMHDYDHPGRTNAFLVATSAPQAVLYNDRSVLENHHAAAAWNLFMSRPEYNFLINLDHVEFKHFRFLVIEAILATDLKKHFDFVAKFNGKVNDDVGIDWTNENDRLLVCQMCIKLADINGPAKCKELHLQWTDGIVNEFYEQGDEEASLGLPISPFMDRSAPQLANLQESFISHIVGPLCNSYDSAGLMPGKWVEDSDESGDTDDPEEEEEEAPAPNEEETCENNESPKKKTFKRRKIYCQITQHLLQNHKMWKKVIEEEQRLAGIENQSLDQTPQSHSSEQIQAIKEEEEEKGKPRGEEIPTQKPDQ
Sodium-dependent noradrenaline transporter, sequence (P23975 whole entry): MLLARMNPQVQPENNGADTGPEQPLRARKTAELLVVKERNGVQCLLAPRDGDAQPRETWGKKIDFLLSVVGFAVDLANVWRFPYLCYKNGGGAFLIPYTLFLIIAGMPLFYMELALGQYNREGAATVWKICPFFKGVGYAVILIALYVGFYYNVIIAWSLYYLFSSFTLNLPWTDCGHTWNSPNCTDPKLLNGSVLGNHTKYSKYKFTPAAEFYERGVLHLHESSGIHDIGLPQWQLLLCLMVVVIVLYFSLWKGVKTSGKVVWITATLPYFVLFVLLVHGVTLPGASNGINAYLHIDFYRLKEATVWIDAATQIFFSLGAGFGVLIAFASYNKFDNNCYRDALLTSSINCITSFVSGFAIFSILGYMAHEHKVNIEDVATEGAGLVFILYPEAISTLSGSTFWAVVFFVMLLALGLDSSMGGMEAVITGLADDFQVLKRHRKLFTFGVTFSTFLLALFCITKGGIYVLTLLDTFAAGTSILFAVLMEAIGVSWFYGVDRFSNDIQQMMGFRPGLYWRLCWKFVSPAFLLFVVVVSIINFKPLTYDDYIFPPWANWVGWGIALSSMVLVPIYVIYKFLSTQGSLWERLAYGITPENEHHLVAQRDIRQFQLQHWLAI
Histamine H3 receptor, sequence (Q9Y5N1 whole entry): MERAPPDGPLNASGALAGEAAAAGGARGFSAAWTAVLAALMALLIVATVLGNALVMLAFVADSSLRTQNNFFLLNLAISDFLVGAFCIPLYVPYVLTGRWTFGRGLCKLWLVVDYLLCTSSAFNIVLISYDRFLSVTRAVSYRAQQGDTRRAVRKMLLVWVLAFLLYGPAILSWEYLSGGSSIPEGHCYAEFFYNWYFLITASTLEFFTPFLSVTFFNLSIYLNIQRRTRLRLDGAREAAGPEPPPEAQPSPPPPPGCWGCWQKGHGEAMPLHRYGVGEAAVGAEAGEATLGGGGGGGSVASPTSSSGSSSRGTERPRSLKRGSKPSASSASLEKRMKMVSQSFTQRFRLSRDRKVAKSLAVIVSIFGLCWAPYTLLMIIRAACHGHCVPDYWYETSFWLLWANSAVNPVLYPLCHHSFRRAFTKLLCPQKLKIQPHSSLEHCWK
Sodium-dependent serotonin transporter, sequence (P31645 whole entry): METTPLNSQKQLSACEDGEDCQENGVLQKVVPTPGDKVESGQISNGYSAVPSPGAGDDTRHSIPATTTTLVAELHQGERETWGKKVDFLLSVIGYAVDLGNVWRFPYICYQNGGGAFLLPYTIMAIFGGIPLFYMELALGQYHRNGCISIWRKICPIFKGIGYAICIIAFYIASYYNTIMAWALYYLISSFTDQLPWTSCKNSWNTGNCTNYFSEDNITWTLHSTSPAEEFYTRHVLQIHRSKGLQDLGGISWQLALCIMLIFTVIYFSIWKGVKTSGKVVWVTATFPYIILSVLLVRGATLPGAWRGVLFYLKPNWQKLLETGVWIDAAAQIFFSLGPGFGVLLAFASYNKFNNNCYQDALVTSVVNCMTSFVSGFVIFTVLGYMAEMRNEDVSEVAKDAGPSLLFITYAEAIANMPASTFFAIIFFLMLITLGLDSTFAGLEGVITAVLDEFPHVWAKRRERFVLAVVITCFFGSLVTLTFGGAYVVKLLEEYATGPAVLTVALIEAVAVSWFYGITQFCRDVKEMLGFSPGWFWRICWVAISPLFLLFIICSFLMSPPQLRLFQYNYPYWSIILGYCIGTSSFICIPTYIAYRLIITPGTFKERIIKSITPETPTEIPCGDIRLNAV

For `Cc1ccc(C)c(OCCCC(C)(C)C(=O)O)c1` [GEMFIBROZIL], the AC50 is more than 30 µM in assay [1]; more than 30 µM in assay [2]; more than 10 µM in [3]; more than 300 µM on Bile salt export pump; more than 10 µM in assay [4]; more than 30 µM in assay [5]. Also, the AC50 at Histamine H3 receptor is more than 10 µM; in assay [6], more than 30 µM; in assay [7], more than 10 µM.

For `O=C(O)Cc1ccccc1Nc1c(Cl)cccc1Cl` [DICLOFENAC], the AC50 was more than 3 µM in assay [1]; more than 30 µM in [2]; more than 10 µM in [3]; more than 300 µM at Bile salt export pump; more than 10 µM in assay [4]; more than 30 µM in assay [5]. For the same compound, the AC50 on Histamine H3 receptor is more than 10 µM; in assay [6] it was more than 30 µM; in assay [7] it was more than 30 µM.

Turning to `CC(=O)NO` [ACETOHYDROXAMIC ACID], the AC50 in assay [1] is more than 30 µM; in [8] it was more than 30 µM; at Bile salt export pump it was more than 300 µM.

In the case of `C[C@H]1CN(C[C@H](Cc2ccccc2)C(=O)NCC(=O)O)CC[C@@]1(C)c1cccc(O)c1` [ALVIMOPAN], the values for the AC50 (in assay [1]; in [8]; at Bile salt export pump) were more than 30 µM, more than 30 µM and more than 300 µM, respectively.

For the compound `C[N+]1(C)CCCC(OC(=O)C(O)(c2ccccc2)c2ccccc2)C1` (stereo not drawn) [MEPENZOLATE], the AC50 is more than 30 µM in assay [1], 20.4 µM in [8] and more than 300 µM on Bile salt export pump.

As to `O=C1Cc2cc(CCN3CCN(c4nsc5ccccc45)CC3)c(Cl)cc2N1` [ZIPRASIDONE], the AC50 was 0.0179 µM in assay [1]; more than 30 µM in assay [2]; 18 µM on Bile salt export pump; 0.95 µM in [4]; more than 30 µM in assay [5]; more than 30 µM on Histamine H3 receptor. The AC50 in assay [6] was more than 30 µM; in [7] it was 0.89 µM.

Turning to `O=C(O)c1ccccc1` [BENZOIC ACID], the AC50 is more than 30 µM in [1] and 260 µM on Bile salt export pump.

Consider `COc1cc(C(C)=O)ccc1OCCCN1CCC(c2noc3cc(F)ccc23)CC1` [ILOPERIDONE], for which the AC50 on Progesterone receptor was more than 30 µM; in [1], 0.003 µM; in assay [2], more than 30 µM; in assay [3], more than 10 µM; on Bile salt export pump it was 40 µM; in assay [4], more than 30 µM. Moreover, the AC50 at Histamine H3 receptor is more than 30 µM; in [7] it was 1.63 µM.

`Cc1ccc(C(=O)c2ccc(CC(=O)O)n2C)cc1` [TOLMETIN]: the AC50 in assay [1] was more than 30 µM; at Bile salt export pump it was more than 300 µM.

`Cc1ccccc1C(=O)Nc1ccc(C(=O)N2CCCC(O)c3cc(Cl)ccc32)c(C)c1` (stereo not drawn) [TOLVAPTAN]: the figures for the AC50 (in assay [1]; in assay [8]; at Bile salt export pump) were more than 30 µM, more than 30 µM and 7.87 µM, respectively.

As to `C=CC(=O)Nc1cccc(Oc2nc(Nc3ccc(N4CCN(C)CC4)cc3)nc3ccsc23)c1` [OLMUTINIB], the values for the AC50 (in [1]; in assay [8]; on Bile salt export pump) were 4.91 µM, more than 30 µM and 13 µM, respectively.

Take `Cc1cc(=O)oc2cc(O)ccc12` [HYMECROMONE]: the AC50 in [1] is more than 30 µM; in [8] it was more than 30 µM; at Bile salt export pump, more than 300 µM.

Take `CC(C(=O)O)c1cccc(Oc2ccccc2)c1` (stereo not drawn) [FENOPROFEN]: the AC50 in assay [1] was more than 30 µM; at Bile salt export pump, more than 300 µM.

For `Nc1c(CC(=O)O)cccc1C(=O)c1ccc(Br)cc1` [BROMFENAC], the AC50 in assay [1] is more than 30 µM; on Bile salt export pump, 88 µM.

Consider `CN(C)c1ccc(O)c2c1C[C@H]1C[C@H]3[C@H](N(C)C)C(O)=C(C(N)=O)C(=O)[C@@]3(O)C(O)=C1C2=O` [MINOCYCLINE], for which the half-maximal activity concentration (AC50) in assay [1] is more than 30 µM; in assay [8], more than 30 µM; on Bile salt export pump, 83 µM.
